Structures can show the parent of a compound that is named as a salt.
Tests used:
Solanum = assay: Herbicidal activity, water, pre-emergence; type: in vivo; details: read-out: Herbicidal activity, Solanum
Description: (§1) Herbicidal activity is determined using standard methods.
(§2) Substances 1 to 8 listed on page 5 are again investigated.

Echinochloa = assay: Herbicidal activity, water, pre-emergence; type: in vivo; details: read-out: Herbicidal activity, Echinochloa
Description: as §1, §2

Rice = assay: Herbicidal activity, water, pre-emergence; type: in vivo; details: Oryza sativa, read-out: Herbicidal activity, Rice
Description: as §1, §2

Lepidium = assay: Herbicidal activity, water, pre-emergence; type: in vivo; details: read-out: Herbicidal activity, Lepidium
Description: as §1, §2

Cyperus esculentus [1] = assay: Herbicidal activity, soil, pre-emergence; type: in vivo; details: read-out: Herbicidal activity, Cyperus esculentus
Description: as §1, §2

Sinapis arvensis [2] = assay: Herbicidal activity, soil, pre-emergence; type: in vivo; details: Mutarda arvensis, read-out: Herbicidal activity, Sinapis arvensis
Description: as §1, §2

Beta vulgaris [3] = assay: Herbicidal activity, soil, pre-emergence; type: in vivo; details: read-out: Herbicidal activity, Beta vulgaris
Description: as §1, §2

Setaria viridis [4] = assay: Herbicidal activity, soil, pre-emergence; type: in vivo; details: read-out: Herbicidal activity, Setaria viridis
Description: as §1, §2

Amaranthus retroflexus [5] = assay: Herbicidal activity, soil, pre-emergence; type: in vivo; details: read-out: Herbicidal activity, Amaranthus retroflexus
Description: as §1, §2

Galium aperine [6] = assay: Herbicidal activity, soil, pre-emergence; type: in vivo; details: read-out: Herbicidal activity, Galium aperine
Description: as §1, §2

Abutilon theophrasti [7] = assay: Herbicidal activity, soil, pre-emergence; type: in vivo; details: read-out: Herbicidal activity, Abutilon theophrasti
Description: as §1, §2

Zea mays [8] = assay: Herbicidal activity, soil, pre-emergence; type: in vivo; details: read-out: Herbicidal activity, Zea mays
Description: as §1, §2

Avena fatua [9] = assay: Herbicidal activity, soil, pre-emergence; type: in vivo; details: read-out: Herbicidal activity, Avena fatua
Description: as §1, §2

Alopecurus myosuroides [10] = assay: Herbicidal activity, soil, pre-emergence; type: in vivo; details: read-out: Herbicidal activity, Alopecurus myosuroides
Description: as §1, §2

Xanthium strumarium [11] = assay: Herbicidal activity, soil, pre-emergence; type: in vivo; details: read-out: Herbicidal activity, Xanthium strumarium
Description: as §1, §2

[12] = molecular target: T1, DOXP reductoisomerase from Helicobacter pylori (Helicobacter pylori, UniProt P56139); assay: DOXP reductoisomerase inhibition (NADPH oxidation at 365 nm); type: biochemical
T1 construct: made in house; host or cells: Helicobacter pylori (so in the source)
T1 sequence (P56139 1-368): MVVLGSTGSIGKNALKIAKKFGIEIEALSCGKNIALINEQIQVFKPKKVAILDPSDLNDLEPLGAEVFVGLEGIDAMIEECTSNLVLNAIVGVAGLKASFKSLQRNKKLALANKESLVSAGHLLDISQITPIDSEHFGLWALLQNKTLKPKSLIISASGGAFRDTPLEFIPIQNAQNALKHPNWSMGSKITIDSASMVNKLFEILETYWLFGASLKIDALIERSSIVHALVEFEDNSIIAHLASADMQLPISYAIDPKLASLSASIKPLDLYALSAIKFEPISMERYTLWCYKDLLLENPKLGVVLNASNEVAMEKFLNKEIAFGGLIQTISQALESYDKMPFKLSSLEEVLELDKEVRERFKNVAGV
Description: The DOXP reductoisomerase of Helicobacter pylori was expressed as a recombinant protein in Helicobacter pylori. The activity of DOXP reductoisomerase was determined in a batch containing 100 mM tris-HCl (pH=7.5), 1 mM MnCl2, 0.3 mM NADPH and 1 mM DOXP.
The oxidation of NADPH was here measured at 365 nm in a spectrophotometer. The inhibition studies were performed by measuring the activity of DOXP reductoisomerase in the presence of compounds 1 to 8 (see page 5) at various concentrations between 0. 1 and 100 μmol l^−1.

Cyperus esculentus [13] = assay: Herbicidal activity, soil, post-emergence; type: in vivo; details: read-out: Herbicidal activity, Cyperus esculentus
Description: as §1, §2

Sinapis arvensis [14] = assay: Herbicidal activity, soil, post-emergence; type: in vivo; details: Mutarda arvensis, read-out: Herbicidal activity, Sinapis arvensis
Description: as §1, §2

Beta vulgaris [15] = assay: Herbicidal activity, soil, post-emergence; type: in vivo; details: read-out: Herbicidal activity, Beta vulgaris
Description: as §1, §2

Setaria viridis [16] = assay: Herbicidal activity, soil, post-emergence; type: in vivo; details: read-out: Herbicidal activity, Setaria viridis
Description: as §1, §2

Amaranthus retroflexus [17] = assay: Herbicidal activity, soil, post-emergence; type: in vivo; details: read-out: Herbicidal activity, Amaranthus retroflexus
Description: as §1, §2

Galium aperine [18] = assay: Herbicidal activity, soil, post-emergence; type: in vivo; details: read-out: Herbicidal activity, Galium aperine
Description: as §1, §2

Abutilon theophrasti [19] = assay: Herbicidal activity, soil, post-emergence; type: in vivo; details: read-out: Herbicidal activity, Abutilon theophrasti
Description: as §1, §2

Zea mays [20] = assay: Herbicidal activity, soil, post-emergence; type: in vivo; details: read-out: Herbicidal activity, Zea mays
Description: as §1, §2

Avena fatua [21] = assay: Herbicidal activity, soil, post-emergence; type: in vivo; details: read-out: Herbicidal activity, Avena fatua
Description: as §1, §2

Alopecurus myosuroides [22] = assay: Herbicidal activity, soil, post-emergence; type: in vivo; details: read-out: Herbicidal activity, Alopecurus myosuroides
Description: as §1, §2

Xanthium strumarium [23] = assay: Herbicidal activity, soil, post-emergence; type: in vivo; details: read-out: Herbicidal activity, Xanthium strumarium
Description: as §1, §2

CP(=O)(CNCN(O)C(=O)CCCN1CCOCC1)Oc1ccccc1 (stereo not drawn) [Compound 4, N-[(4-N-Morpholinobutanoyl-N-hydroxy)aminomethyl]aminomethyl(methyl)phosphinic acid phenyl ester]
pest or weed control at 4000 g/ha (Solanum): 30% | pest or weed control at 4000 g/ha (Echinochloa): 70% | plant injury at 4000 g/ha (Rice): 30% | pest or weed control at 4000 g/ha (Lepidium): 40% | pest or weed control at 2000 g/ha (Cyperus esculentus [1]): 0% | pest or weed control at 2000 g/ha (Sinapis arvensis [2]): 70% | plant injury at 2000 g/ha (Beta vulgaris [3]): 60% | pest or weed control at 2000 g/ha (Setaria viridis [4]): 0% | pest or weed control at 2000 g/ha (Amaranthus retroflexus [5]): 20% | pest or weed control at 2000 g/ha (Galium aperine [6]): 0% | pest or weed control at 2000 g/ha (Abutilon theophrasti [7]): 0% | plant injury at 2000 g/ha (Zea mays [8]): 30% | pest or weed control at 2000 g/ha (Avena fatua [9]): 60% | pest or weed control at 2000 g/ha (Alopecurus myosuroides [10]): 30% | pest or weed control at 2000 g/ha (Xanthium strumarium [11]): 0% | IC50 [12]: 110 nM | pest or weed control at 2000 g/ha (Cyperus esculentus [13]): 0% | pest or weed control at 2000 g/ha (Sinapis arvensis [14]): 80% | plant injury at 2000 g/ha (Beta vulgaris [15]): 50% | pest or weed control at 2000 g/ha (Setaria viridis [16]): 90% | pest or weed control at 2000 g/ha (Amaranthus retroflexus [17]): 40% | pest or weed control at 2000 g/ha (Galium aperine [18]): 70% | pest or weed control at 2000 g/ha (Abutilon theophrasti [19]): 50% | plant injury at 2000 g/ha (Zea mays [20]): 70% | pest or weed control at 2000 g/ha (Avena fatua [21]): 70% | pest or weed control at 2000 g/ha (Alopecurus myosuroides [22]): 70% | pest or weed control at 2000 g/ha (Xanthium strumarium [23]): 90%

CP(=O)(O)C(O)CNCN(O)C(=O)c1ccco1 (stereo not drawn) [Compound 5, 2-(N-2-Furanoyl-N-hydroxy-aminomethyl)amino-1-hydroxyethylmethylphosphinic acid, sodium salt]
pest or weed control at 4000 g/ha (Solanum): 0% | pest or weed control at 4000 g/ha (Echinochloa): 80% | plant injury at 4000 g/ha (Rice): 40% | pest or weed control at 4000 g/ha (Lepidium): 40% | pest or weed control at 2000 g/ha (Cyperus esculentus [1]): 0% | pest or weed control at 2000 g/ha (Sinapis arvensis [2]): 50% | plant injury at 2000 g/ha (Beta vulgaris [3]): 30% | pest or weed control at 2000 g/ha (Setaria viridis [4]): 0% | pest or weed control at 2000 g/ha (Amaranthus retroflexus [5]): 0% | pest or weed control at 2000 g/ha (Galium aperine [6]): 0% | pest or weed control at 2000 g/ha (Abutilon theophrasti [7]): 0% | plant injury at 2000 g/ha (Zea mays [8]): 0% | pest or weed control at 2000 g/ha (Avena fatua [9]): 0% | pest or weed control at 2000 g/ha (Alopecurus myosuroides [10]): 50% | pest or weed control at 2000 g/ha (Xanthium strumarium [11]): 0% | IC50 [12]: 130 nM | pest or weed control at 2000 g/ha (Cyperus esculentus [13]): 0% | pest or weed control at 2000 g/ha (Sinapis arvensis [14]): 90% | plant injury at 2000 g/ha (Beta vulgaris [15]): 40% | pest or weed control at 2000 g/ha (Setaria viridis [16]): 95% | pest or weed control at 2000 g/ha (Amaranthus retroflexus [17]): 30% | pest or weed control at 2000 g/ha (Galium aperine [18]): 80% | pest or weed control at 2000 g/ha (Abutilon theophrasti [19]): 40% | plant injury at 2000 g/ha (Zea mays [20]): 80% | pest or weed control at 2000 g/ha (Avena fatua [21]): 80% | pest or weed control at 2000 g/ha (Alopecurus myosuroides [22]): 70% | pest or weed control at 2000 g/ha (Xanthium strumarium [23]): 60%

O=CN(O)CNCP(=O)(O)O [Compound 8]
pest or weed control at 2000 g/ha (Solanum): 30% | pest or weed control at 2000 g/ha (Echinochloa): 40% | plant injury at 2000 g/ha (Rice): 30% | pest or weed control at 2000 g/ha (Lepidium): 30% | pest or weed control at 1000 g/ha (Cyperus esculentus [1]): 0% | pest or weed control at 1000 g/ha (Sinapis arvensis [2]): 30% | plant injury at 1000 g/ha (Beta vulgaris [3]): 40% | pest or weed control at 1000 g/ha (Setaria viridis [4]): 0% | pest or weed control at 1000 g/ha (Amaranthus retroflexus [5]): 20% | pest or weed control at 1000 g/ha (Galium aperine [6]): 0% | pest or weed control at 1000 g/ha (Abutilon theophrasti [7]): 0% | plant injury at 1000 g/ha (Zea mays [8]): 30% | pest or weed control at 1000 g/ha (Avena fatua [9]): 30% | pest or weed control at 1000 g/ha (Alopecurus myosuroides [10]): 30% | pest or weed control at 1000 g/ha (Xanthium strumarium [11]): 0% | IC50 [12]: 60 nM | pest or weed control at 1000 g/ha (Cyperus esculentus [13]): 0% | pest or weed control at 1000 g/ha (Sinapis arvensis [14]): 70% | plant injury at 1000 g/ha (Beta vulgaris [15]): 50% | pest or weed control at 1000 g/ha (Setaria viridis [16]): 90% | pest or weed control at 1000 g/ha (Amaranthus retroflexus [17]): 50% | pest or weed control at 1000 g/ha (Galium aperine [18]): 70% | pest or weed control at 1000 g/ha (Abutilon theophrasti [19]): 50% | plant injury at 1000 g/ha (Zea mays [20]): 70% | pest or weed control at 1000 g/ha (Avena fatua [21]): 80% | pest or weed control at 1000 g/ha (Alopecurus myosuroides [22]): 80% | pest or weed control at 1000 g/ha (Xanthium strumarium [23]): 90%

— patent publication US20030144249A1, “Use of organophosphorous compounds for producing a medicament for treating infections” (priority 2000, published 2003)
